Source: ChEMBL document CHEMBL1122565, “Quantitative structure-activity relationships of 6-anilinouracils as inhibitors of Bacillus subtilis DNA polymerase III” (J Med Chem, 1984)

What follows are molecules tested against DNA polymerase III PolC-type (Bacillus subtilis (strain 168), UniProt P13267) (assay: Inhibition constant against Bacillus subtilis DNA polymerase III (wild type).). Details: read-out: Log 1/Ki (converted).
DNA polymerase III PolC-type, sequence (P13267 whole entry): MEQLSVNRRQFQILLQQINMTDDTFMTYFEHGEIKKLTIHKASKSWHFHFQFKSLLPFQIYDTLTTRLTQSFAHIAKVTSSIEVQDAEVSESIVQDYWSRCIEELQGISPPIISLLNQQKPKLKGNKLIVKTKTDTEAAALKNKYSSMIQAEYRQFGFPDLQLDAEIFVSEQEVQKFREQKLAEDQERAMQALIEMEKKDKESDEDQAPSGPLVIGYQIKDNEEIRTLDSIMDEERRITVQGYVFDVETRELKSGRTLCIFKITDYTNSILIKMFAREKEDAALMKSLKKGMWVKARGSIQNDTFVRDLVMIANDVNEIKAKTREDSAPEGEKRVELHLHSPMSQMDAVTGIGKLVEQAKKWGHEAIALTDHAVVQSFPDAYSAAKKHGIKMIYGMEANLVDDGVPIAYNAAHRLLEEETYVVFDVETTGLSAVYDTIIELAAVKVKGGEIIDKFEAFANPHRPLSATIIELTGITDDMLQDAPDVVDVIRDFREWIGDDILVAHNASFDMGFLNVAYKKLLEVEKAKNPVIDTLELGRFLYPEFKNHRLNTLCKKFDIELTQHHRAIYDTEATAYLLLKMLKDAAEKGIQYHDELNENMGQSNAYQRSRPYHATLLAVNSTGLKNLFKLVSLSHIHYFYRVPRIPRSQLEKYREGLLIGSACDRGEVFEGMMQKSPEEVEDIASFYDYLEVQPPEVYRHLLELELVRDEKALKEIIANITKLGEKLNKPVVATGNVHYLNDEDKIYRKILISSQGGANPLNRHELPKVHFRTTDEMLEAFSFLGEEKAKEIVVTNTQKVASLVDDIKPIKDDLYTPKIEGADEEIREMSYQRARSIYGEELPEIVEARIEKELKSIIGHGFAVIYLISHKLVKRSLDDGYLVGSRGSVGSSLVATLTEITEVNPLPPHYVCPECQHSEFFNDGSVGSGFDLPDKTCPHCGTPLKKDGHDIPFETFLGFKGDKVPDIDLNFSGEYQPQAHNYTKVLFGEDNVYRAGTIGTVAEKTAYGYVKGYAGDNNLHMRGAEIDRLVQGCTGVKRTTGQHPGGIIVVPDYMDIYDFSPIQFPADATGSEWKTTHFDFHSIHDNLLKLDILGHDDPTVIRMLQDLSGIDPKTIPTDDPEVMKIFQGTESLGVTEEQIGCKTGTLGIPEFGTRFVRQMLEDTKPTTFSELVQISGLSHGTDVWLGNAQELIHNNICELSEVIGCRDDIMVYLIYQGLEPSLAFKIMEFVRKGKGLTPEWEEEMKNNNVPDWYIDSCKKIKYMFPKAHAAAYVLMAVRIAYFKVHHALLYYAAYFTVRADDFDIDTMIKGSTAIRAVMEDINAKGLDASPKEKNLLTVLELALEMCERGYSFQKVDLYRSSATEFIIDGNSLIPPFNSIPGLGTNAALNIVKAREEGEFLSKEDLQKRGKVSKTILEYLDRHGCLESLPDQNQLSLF

Row | Compound | Ki
1 | CCCCc1cccc(Nc2cc(O)nc(O)n2)c1 | 695 µM
2 | CCCc1ccc(Nc2cc(O)nc(O)n2)cc1C | 97.9 µM
3 | CCCCc1ccc(Nc2cc(O)nc(O)n2)cc1C | 692 µM
4 | CCc1cc(Nc2cc(=O)[nH]c(=O)[nH]2)ccc1C | 0.19 µM
5 | CCc1ccc(Nc2cc(=O)[nH]c(=O)[nH]2)cc1C | 19 µM
6 | CCCc1cccc(Nc2cc(O)nc(O)n2)c1 | 17 µM

What follows are molecules tested against DNA polymerase III (Bacillus subtilis) (assay: Inhibition constant against Bacillus subtilis azp-12 DNA polymerase III (mutant enzyme).). Details: not given.

Row | Compound | Log 1/Ki
7 | Cc1ccc(Nc2cc(O)nc(O)n2)cc1C | 5.456
8 | Cc1ccc(Nc2cc(O)nc(O)n2)cc1I | 6.553
9 | Cc1cc(Nc2cc(O)nc(O)n2)ccc1N | 3.801
10 | Oc1cc(Nc2cccc(Br)c2)nc(O)n1 | 4.66
11 | CC(=O)Nc1ccc(Nc2cc(O)nc(O)n2)cc1C | 2.81
12 | CCCc1ccc(Nc2cc(O)nc(O)n2)cc1C | 4.86
13 | CC(=O)Nc1cc(Nc2cc(O)nc(O)n2)ccc1C | 2.726
14 | Cc1cccc(Nc2cc(O)nc(O)n2)c1 | 3.75
15 | CCCCc1ccc(Nc2cc(O)nc(O)n2)cc1C | 3.879
16 | OCc1cccc(Nc2cc(O)nc(O)n2)c1 | 2.29
17 | Oc1cc(Nc2cccc(Cl)c2)nc(O)n1 | 4.38
18 | Nc1ccc(Nc2cc(O)nc(O)n2)cc1 | 2.409
19 | CCCc1ccc(Nc2cc(O)nc(O)n2)cc1 | 4.278
20 | COc1ccc(Nc2cc(O)nc(O)n2)cc1 | 3.921
